Results from BindingDB's records for doi:10.1016/j.bmcl.2008.01.028 (Nih, 2008).

Biological target: cAMP-specific 3',5'-cyclic phosphodiesterase 4A (Homo sapiens, UniProt P27815)
Assay: PDE4A Inhibition Assay
Protocol: Inhibition of PDE4A was performed using IMAP technology (Molecular Devices, CA). PDE4A1A mixture was dispensed into 1536-well black/solid bottom assay plates (Greiner Bio-One North America, NC) using a Flying Reagent Dispenser (Aurora Discovery, CA). The plates were centrifuged at 1000 rpm for 30s and compound was transferred to the assay plate using a Kalypsys pin tool. After incubation, cAMP was dispensed into the plates to initiate the reaction. IMAP binding reagent was then added to the assay plate after the reaction.

Chain of cAMP-specific 3',5'-cyclic phosphodiesterase 4A (P27815 whole entry): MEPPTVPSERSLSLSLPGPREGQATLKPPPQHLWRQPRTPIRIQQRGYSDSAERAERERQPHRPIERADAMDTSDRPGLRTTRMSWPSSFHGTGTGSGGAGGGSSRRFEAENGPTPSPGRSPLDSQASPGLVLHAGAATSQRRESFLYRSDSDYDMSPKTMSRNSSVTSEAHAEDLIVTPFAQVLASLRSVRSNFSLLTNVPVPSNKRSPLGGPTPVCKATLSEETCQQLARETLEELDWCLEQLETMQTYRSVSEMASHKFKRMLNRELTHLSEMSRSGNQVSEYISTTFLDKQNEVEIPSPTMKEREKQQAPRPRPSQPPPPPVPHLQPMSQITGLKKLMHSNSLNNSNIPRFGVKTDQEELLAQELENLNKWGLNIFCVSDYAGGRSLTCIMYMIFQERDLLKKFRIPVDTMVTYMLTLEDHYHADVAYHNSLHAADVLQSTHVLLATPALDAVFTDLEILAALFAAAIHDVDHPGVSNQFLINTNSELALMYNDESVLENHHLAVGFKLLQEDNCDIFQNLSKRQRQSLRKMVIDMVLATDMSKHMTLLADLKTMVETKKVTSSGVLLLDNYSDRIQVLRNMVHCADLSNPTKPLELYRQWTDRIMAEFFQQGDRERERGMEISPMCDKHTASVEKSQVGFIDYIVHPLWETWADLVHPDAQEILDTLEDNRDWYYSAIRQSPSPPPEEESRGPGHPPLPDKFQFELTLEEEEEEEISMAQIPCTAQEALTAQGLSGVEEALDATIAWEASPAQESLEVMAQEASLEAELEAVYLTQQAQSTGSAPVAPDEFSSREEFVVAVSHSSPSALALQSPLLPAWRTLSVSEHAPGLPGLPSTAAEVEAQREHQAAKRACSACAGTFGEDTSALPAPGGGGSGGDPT

| Compound | IC50 (pH 7.2, 22 °C) [µM] | IC50 [µM] |
| --- | --- | --- |
| COc1cccc(-c2nnc3n2N=C(c2c(OC)cccc2OC)CS3)c1OC [triazolothiadiazine, 11D] | – | > 20 |
| COc1cccc(C2=Nn3c(nnc3-c3ccccc3C)SC2)c1 [triazolothiadiazine, 7I] | – | 3.2 |
| COc1ccccc1-c1nnc2n1N=C(c1c(OC)cccc1OC)CS2 [triazolothiadiazine, 11A] | – | > 20 |
| COc1cccc(C2=Nn3c(nnc3-c3ccccc3OC)SC2)c1 [triazolothiadiazine, 7A] | 12 | – |
| CCOc1ccccc1-c1nnc2n1N=C(c1cccc(OC)c1)CS2 [triazolothiadiazine, 7J] | – | 11.2 |
| COc1ccc(C2=Nn3c(nnc3-c3ccc(OC)cc3OC)SC2)cc1 [triazolothiadiazine, 8E] | – | > 20 |
| COc1ccccc1C1=Nn2c(nnc2-c2ccccc2O)SC1 [triazolothiadiazine, 6K] | > 20 | – |
| COc1ccc(C2=Nn3c(nnc3-c3cccc(OC)c3OC)SC2)c(OC)c1 [triazolothiadiazine, 9D] | – | > 20 |
| COc1cccc(-c2nnc3n2N=C(c2ccccc2OC)CS3)c1 [triazolothiadiazine, 6B] | 13.4 | – |
| COc1cccc(C2=Nn3c(nnc3-c3ccccc3O)SC2)c1 [triazolothiadiazine, 7K] | – | 14.1 |
| COc1ccc(-c2nnc3n2N=C(c2c(OC)cccc2OC)CS3)cc1 [triazolothiadiazine, 11C] | – | 19.7 |
| COc1ccc(-c2nnc3n2N=C(c2ccccc2OC)CS3)cc1 [triazolothiadiazine, 6C] | 14.1 | – |
| COc1cccc(-c2nnc3n2N=C(c2ccc(OC)cc2OC)CS3)c1 [triazolothiadiazine, 9B] | – | 14.1 |
| COc1ccc(C2=Nn3c(nnc3-c3ccccc3C)SC2)cc1 [triazolothiadiazine, 8I] | – | 12.5 |
| COc1ccc(-c2nnc3n2N=C(c2c(OC)cccc2OC)CS3)c(OC)c1 [triazolothiadiazine, 11E] | – | > 20 |
| CCOc1ccccc1-c1nnc2n1N=C(c1cc(OC)ccc1OC)CS2 [triazolothiadiazine, 10J] | – | 13.4 |
| CCOc1ccccc1-c1nnc2n1N=C(c1ccc(OC)cc1OC)CS2 [triazolothiadiazine, 9J] | – | > 20 |
| COc1ccc(-c2nnc3n2N=C(c2ccc(OC)cc2OC)CS3)cc1 [triazolothiadiazine, 9C] | – | 13.4 |
| COc1ccc(C2=Nn3c(nnc3-c3ccccc3OC)SC2)cc1 [triazolothiadiazine, 8A] | – | > 20 |
| COc1ccc(-c2nnc3n2N=C(c2cccc(OC)c2)CS3)cc1 [triazolothiadiazine, 7C] | 8.4 | – |
| COc1ccc(OC)c(C2=Nn3c(nnc3-c3ccccc3C)SC2)c1 [triazolothiadiazine, 10I] | – | 6.3 |
| COc1ccc(-c2nnc3n2N=C(c2cc(OC)ccc2OC)CS3)cc1 [triazolothiadiazine, 10C] | – | 10.1 |

| Compound | IC50 (pH 7.2, 22 °C) [µM] | IC50 [µM] |
| --- | --- | --- |
| COc1ccc(-c2nnc3n2N=C(c2ccccc2OC)CS3)c(OC)c1 [triazolothiadiazine, 6E] | 19.7 | – |
| CCOc1ccccc1-c1nnc2n1N=C(c1c(OC)cccc1OC)CS2 [triazolothiadiazine, 11J] | – | > 20 |
| COc1ccc(OC)c(-c2nnc3n2N=C(c2ccccc2OC)CS3)c1 [triazolothiadiazine, 6F] | 19.6 | – |
| COc1ccc(C2=Nn3c(nnc3-c3ccccc3O)SC2)c(OC)c1 [triazolothiadiazine, 9K] | – | > 20 |
| COc1cccc(-c2nnc3n2N=C(c2c(OC)cccc2OC)CS3)c1 [triazolothiadiazine, 11B] | – | > 20 |
| COc1cccc(C2=Nn3c(nnc3-c3cccc(OC)c3OC)SC2)c1 [triazolothiadiazine, 7D] | > 20 | – |
| COc1cccc(C2=Nn3c(nnc3-c3cccc(OC)c3)SC2)c1 [triazolothiadiazine, 7B] | 12.6 | – |
| COc1ccc(C2=Nn3c(nnc3-c3ccccc3OC)SC2)c(OC)c1 [triazolothiadiazine, 9A] | – | 15 |
| COc1ccc(C2=Nn3c(nnc3-c3cccc(OC)c3OC)SC2)cc1 [triazolothiadiazine, 8D] | – | > 20 |
| COc1ccccc1C1=Nn2c(nnc2-c2ccccc2C)SC1 [triazolothiadiazine, 6I] | 14.1 | – |
| COc1ccc(C2=Nn3c(nnc3-c3cccc(OC)c3)SC2)cc1 [triazolothiadiazine, 8B] | – | 12.6 |
| CCOc1ccccc1-c1nnc2n1N=C(c1ccc(OC)cc1)CS2 [triazolothiadiazine, 8J] | – | 4.5 |
| COc1ccc(OC)c(C2=Nn3c(nnc3-c3ccccc3OC)SC2)c1 [triazolothiadiazine, 10A] | – | 8.9 |
| COc1ccc(C2=Nn3c(nnc3-c3ccccc3O)SC2)cc1 [triazolothiadiazine, 8K] | – | 8.4 |
| COc1ccccc1C1=Nn2c(nnc2-c2cccc(OC)c2OC)SC1 [triazolothiadiazine, 6D] | > 20 | – |
| COc1cccc(OC)c1C1=Nn2c(nnc2-c2ccccc2O)SC1 [triazolothiadiazine, 11K] | – | > 20 |
| COc1ccc(C2=Nn3c(nnc3-c3ccccc3C)SC2)c(OC)c1 [triazolothiadiazine, 9I] | – | > 20 |
| COc1cccc(OC)c1C1=Nn2c(nnc2-c2ccccc2C)SC1 [triazolothiadiazine, 11I] | – | 14.1 |
| COc1ccc(C2=Nn3c(nnc3-c3ccc(OC)cc3)SC2)cc1 | – | 8.4 |
| CCOc1ccccc1-c1nnc2n1N=C(c1ccccc1OC)CS2 [triazolothiadiazine, 6J] | > 20 | – |
| COc1ccccc1C1=Nn2c(nnc2-c2ccccc2OC)SC1 [triazolothiadiazine, 6A] | 20 | – |
| COc1ccc(OC)c(C2=Nn3c(nnc3-c3ccccc3O)SC2)c1 [triazolothiadiazine, 10K] | – | > 20 |

Next, values leading:

| IC50 (pH 7.2, 22 °C) [µM] | IC50 [µM] | Compound |
| --- | --- | --- |
| 0.05 | – | COc1cc(OC)cc(-c2nnc3n2N=C(c2ccc(OC)c(OC)c2)CS3)c1 [triazolothiadiazine, 5H] |
| – | 14.1 | COc1ccc(-c2nnc3n2N=C(c2c(OC)cccc2OC)CS3)cc1OC [triazolothiadiazine, 11G] |
| 8 | – | COc1cccc(C2=Nn3c(nnc3-c3cc(OC)ccc3OC)SC2)c1 [triazolothiadiazine, 7F] |
| – | 12.7 | COc1cc(OC)cc(-c2nnc3n2N=C(c2cc(OC)ccc2OC)CS3)c1 [triazolothiadiazine, 10H] |
| – | 6.9 | COc1ccc(OC)c(C2=Nn3c(nnc3-c3ccc(OC)c(OC)c3)SC2)c1 [triazolothiadiazine, 10G] |
| 13.4 | – | COc1cccc(C2=Nn3c(nnc3-c3ccc(OC)cc3OC)SC2)c1 [triazolothiadiazine, 7E] |
| – | 11.9 | COc1ccc(OC)c(C2=Nn3c(nnc3-c3cc(OC)ccc3OC)SC2)c1 [triazolothiadiazine, 10F] |
| – | 11.9 | COc1ccc(OC)c(C2=Nn3c(nnc3-c3cccc(OC)c3OC)SC2)c1 [triazolothiadiazine, 10D] |
| – | 6.7 | COc1ccc(C2=Nn3c(nnc3-c3ccc(OC)c(OC)c3)SC2)c(OC)c1 [triazolothiadiazine, 9G] |
| – | 7.5 | COc1ccc(C2=Nn3c(nnc3-c3ccc(OC)c(OC)c3)SC2)cc1 [triazolothiadiazine, 8G] |
| – | > 20 | COc1cc(OC)cc(-c2nnc3n2N=C(c2ccc(OC)cc2OC)CS3)c1 [triazolothiadiazine, 9H] |
| – | 9.5 | COc1ccc(C2=Nn3c(nnc3-c3cc(OC)cc(OC)c3)SC2)cc1 [triazolothiadiazine, 8H] |
| 13.4 | – | COc1cccc(C2=Nn3c(nnc3-c3cc(OC)cc(OC)c3)SC2)c1 [triazolothiadiazine, 7H] |
| – | 19.6 | COc1cc(OC)cc(-c2nnc3n2N=C(c2c(OC)cccc2OC)CS3)c1 [triazolothiadiazine, 11H] |
| – | 7.5 | COc1ccc(C2=Nn3c(nnc3-c3cc(OC)ccc3OC)SC2)c(OC)c1 [triazolothiadiazine, 9F] |
| – | > 20 | COc1ccc(C2=Nn3c(nnc3-c3ccc(OC)cc3OC)SC2)c(OC)c1 [triazolothiadiazine, 9E] |
| 9 | – | COc1cccc(C2=Nn3c(nnc3-c3ccc(OC)c(OC)c3)SC2)c1 [triazolothiadiazine, 7G] |
| 0.177 | – | COc1ccc(C2=Nn3c(nnc3-c3ccc(OC)c(OC)c3)SC2)cc1OC [triazolothiadiazine, 5G] |
| 0.0889 | – | COc1ccc(-c2nnc3n2N=C(c2ccc(OC)c(OC)c2)CS3)cc1 [triazolothiadiazine, 5C] |
| 0.126 | – | COc1cccc(-c2nnc3n2N=C(c2ccc(OC)c(OC)c2)CS3)c1 [triazolothiadiazine, 5B] |
| 0.079 | – | COc1ccc(-c2nnc3n2N=C(c2ccc(OC)c(OC)c2)CS3)c(OC)c1 [triazolothiadiazine, 5E] |
| – | 12.6 | COc1cccc(-c2nnc3n2N=C(c2cc(OC)ccc2OC)CS3)c1 |
| – | > 20 | COc1ccc(OC)c(-c2nnc3n2N=C(c2c(OC)cccc2OC)CS3)c1 [triazolothiadiazine, 11F] |
| 8.9 | – | COc1ccc(-c2nnc3n2N=C(c2ccccc2OC)CS3)cc1OC [triazolothiadiazine, 6G] |
| 13.4 | – | COc1cc(OC)cc(-c2nnc3n2N=C(c2ccccc2OC)CS3)c1 [triazolothiadiazine, 6H] |
| – | 5.3 | COc1ccc(-c2nnc3n2N=C(c2cc(OC)ccc2OC)CS3)c(OC)c1 [triazolothiadiazine, 10E] |
| – | 1.7 | COc1ccc(C2=Nn3c(nnc3-c3cc(OC)ccc3OC)SC2)cc1 [triazolothiadiazine, 8F] |
